Data reported in patent publication US12398120B2, “Substituted hydantoinamides as ADAMTS7 antagonists” (BAYER AKTIENGESELLSCHAFT, priority 2019, dated 2025).
pIC50: −log10 of the molar value.

These molecules were tested against ADAMTS4 (Homo sapiens (Human), UniProt O75173) (assay: Selectivity assay for ADAMTS-7 modulators: ADAMTS4 (FRET substrate)). Conditions: ADAMTS4 (R&D 4307-AD) 50 nM, substrate Dabcyl-EEVKAKVQPY-Glu(Edans)-NH2 1 μM, 120 min, 32° C.
Format: biochemical
Summary of the method: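 Human ADAMTS4 with compound in DMSO, or DMSO control; reaction started by adding FRET substrate in reaction buffer. Fluorescence increase measured at substrate-specific wavelengths. IC50 derived from % inhibition of enzyme activity versus compound concentration.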

Chain of ADAMTS4 (O75173 213-685): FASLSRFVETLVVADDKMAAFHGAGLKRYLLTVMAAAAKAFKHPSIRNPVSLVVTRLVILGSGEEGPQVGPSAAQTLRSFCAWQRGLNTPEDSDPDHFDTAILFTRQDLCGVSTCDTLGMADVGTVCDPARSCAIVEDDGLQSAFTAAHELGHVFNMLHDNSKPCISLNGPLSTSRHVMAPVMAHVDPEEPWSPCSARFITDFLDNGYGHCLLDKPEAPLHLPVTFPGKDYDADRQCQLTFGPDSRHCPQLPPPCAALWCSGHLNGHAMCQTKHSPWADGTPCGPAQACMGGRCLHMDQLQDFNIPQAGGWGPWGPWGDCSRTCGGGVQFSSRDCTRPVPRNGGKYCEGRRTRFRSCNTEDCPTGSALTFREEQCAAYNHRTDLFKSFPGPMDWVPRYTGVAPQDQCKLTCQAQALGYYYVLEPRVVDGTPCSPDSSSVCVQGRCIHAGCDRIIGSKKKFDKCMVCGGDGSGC

Compound | pIC50
CC1CCC1C1(CNC(=O)c2ccccc2-c2ccc(C(F)(F)F)cc2)NC(=O)NC1=O (stereo not drawn) [Example 26, Ent-N-{[4-(2-Methylcyclobutyl)-2,5-Dioxoimidazolidin-4-Yl]Methyl}-4′-(Trifluoromethyl)[Biphenyl]-2-Carboxamide] | < 4.30
Cc1ncsc1C1(CNC(=O)c2ccccc2-c2ccc(C(F)(F)F)cc2)NC(=O)NC1=O (stereo not drawn) [Example 27, Ent-N-{[4-(4-Methyl-1,3-Thiazol-5-Yl)-2,5-Dioxoimidazolidin-4-Yl]Methyl}-4′-(Trifluoromethyl)[Biphenyl]-2-Carboxamide] | 5.04
O=C1NC(=O)C(CNC(=O)c2ccccc2-c2ccc(C(F)(F)F)cc2)(c2ccnn2CC(F)(F)F)N1 (stereo not drawn) [Example 28, Ent-N-({2,5-Dioxo-4-[1-(2,2,2-Trifluoroethyl)-1H-Pyrazol-5-Yl]Imidazolidin-4-Yl}Methyl)-4′-(Trifluoromethyl)[Biphenyl]-2-Carboxamide] | 4.96
Cc1c(C2(CNC(=O)c3ccccc3-c3ccc(C(F)(F)F)cc3)NC(=O)NC2=O)cnn1C (stereo not drawn) [Example 31, Ent-N-{[4-(1,5-Dimethyl-1H-Pyrazol-4-Yl)-2,5-Dioxoimidazolidin-4-Yl]Methyl}-4′-(Trifluoromethyl)[Biphenyl]-2-Carboxamide] | 5.19
Cc1ncsc1C1(CNC(=O)c2ccccc2-c2ccc(C(F)(F)F)nc2)NC(=O)NC1=O (stereo not drawn) [Example 37, Ent-N-{[4-(4-Methyl-1,3-Thiazol-5-Yl)-2,5-Dioxoimidazolidin-4-Yl]Methyl}-2-[6-(Trifluoromethyl)Pyridin-3-Yl]Benzamide] | 5.06
CCC(C)C1(CNC(=O)c2ccccc2-c2ccc(C(F)(F)F)cc2)NC(=O)NC1=O (stereo not drawn) [Example 38, Diamix-N-[(4-Sec-Butyl-2,5-Dioxoimidazolidin-4-Yl)Methyl]-4′-(Trifluoromethyl)[Biphenyl]-2-Carboxamide] | 4.68
O=C1NC(=O)C(CNC(=O)c2ccccc2-c2ccc(C(F)(F)F)cc2)(c2ccnn2C2CC2)N1 (stereo not drawn) [Example 46, Ent-N-{[4-(1-Cyclopropyl-1H-Pyrazol-5-Yl)-2,5-Dioxoimidazolidin-4-Yl]Methyl}-4′-(Trifluoromethyl)[Biphenyl]-2-Carboxamide] | 5.32
Cc1nc(C)c(C2(CNC(=O)c3ccccc3-c3ccc(C(F)(F)F)cc3)NC(=O)NC2=O)s1 (stereo not drawn) [Example 47, Ent-N-{[4-(2,4-Dimethyl-1,3-Thiazol-5-Yl)-2,5-Dioxoimidazolidin-4-Yl]Methyl}-4′-(Trifluoromethyl)[Biphenyl]-2-Carboxamide] | 5.38
CCC(C)C1(CNC(=O)c2ccccc2-c2ccc(C(F)(F)F)nc2)NC(=O)NC1=O (stereo not drawn) [Example 51, Diamix-N-[(4-Sec-Butyl-2,5-Dioxoimidazolidin-4-Yl)Methyl]-2-[6-(Trifluoromethyl)Pyridin-3-Yl]Benzamide] | 4.60
O=C1NC(=O)[C@](CNC(=O)c2ccccc2-c2ccc(Cl)cc2F)(C2CC2)N1 [Example 54, 4′-Chloro-N-{[(4R)-4-Cyclopropyl-2,5-Dioxoimidazolidin-4-Yl]Methyl}-2′-Fluoro[Biphenyl]-2-Carboxamide] | 4.49
O=C1NC(=O)[C@](CNC(=O)c2ccncc2-c2ccc(Cl)cc2)(C2CC2)N1 [Example 56, 3-(4-Chlorophenyl)-N-{[(4R)-4-Cyclopropyl-2,5-Dioxoimidazolidin-4-Yl]Methyl}Isonicotinamide] | 4.51
Cc1nscc1C1(CNC(=O)c2ccccc2-c2ccc(C(F)(F)F)nc2)NC(=O)NC1=O (stereo not drawn) [Example 64, Ent-N-{[4-(3-Methyl-1,2-Thiazol-4-Yl)-2,5-Dioxoimidazolidin-4-Yl]Methyl}-2-[6-(Trifluoromethyl)Pyridin-3-Yl]Benzamide] | 4.92
Cc1nocc1C1(CNC(=O)c2ccccc2-c2ccc(C(F)(F)F)nc2)NC(=O)NC1=O (stereo not drawn) [Example 65, Ent-N-{[4-(3-Methyl-1,2-Oxazol-4-Yl)-2,5-Dioxoimidazolidin-4-Yl]Methyl}-2-[6-(Trifluoromethyl)Pyridin-3-Yl]Benzamide] | 4.70
O=C1NC(=O)C(CNC(=O)c2ccccc2-c2ccc(C(F)(F)F)nc2)(c2ccnn2C2CC2)N1 (stereo not drawn) [Example 66, Ent-N-{[4-(1-Cyclopropyl-1H-Pyrazol-5-Yl)-2,5-Dioxoimidazolidin-4-Yl]Methyl}-2-[6-(Trifluoromethyl)Pyridin-3-Yl]Benzamide] | 5.09
Cc1nocc1C1(CNC(=O)c2ccccc2-c2ccc(C(F)(F)F)cc2)NC(=O)NC1=O (stereo not drawn) [Example 68, Ent-N-{[4-(3-Methyl-1,2-Oxazol-4-Yl)-2,5-Dioxoimidazolidin-4-Yl]Methyl}-4′-(Trifluoromethyl)[Biphenyl]-2-Carboxamide] | 4.96
Cc1conc1C1(CNC(=O)c2ccccc2-c2ccc(C(F)(F)F)cc2)NC(=O)NC1=O (stereo not drawn) [Example 69, Ent-N-{[4-(4-Methyl-1,2-Oxazol-3-Yl)-2,5-Dioxoimidazolidin-4-Yl]Methyl}-4′-(Trifluoromethyl)[Biphenyl]-2-Carboxamide] | 5.31
Cc1cn(C)nc1C1(CNC(=O)c2ccccc2-c2ccc(C(F)(F)F)cc2)NC(=O)NC1=O (stereo not drawn) [Example 70, Ent-N-{[4-(1,4-Dimethyl-1H-Pyrazol-3-Yl)-2,5-Dioxoimidazolidin-4-Yl]Methyl}-4′-(Trifluoromethyl)[Biphenyl]-2-Carboxamide] | 5.35
CC(C)(C)C1(CNC(=O)c2ccccc2-c2ccc(C(F)(F)F)cc2)NC(=O)NC1=O (stereo not drawn) [Example 71, Ent-N-[(4-Tert-Butyl-2,5-Dioxoimidazolidin-4-Yl)Methyl]-4′-(Trifluoromethyl)[Biphenyl]-2-Carboxamide] | 4.79
Cc1cn(C)nc1C1(CNC(=O)c2ccccc2-c2ccc(C(F)(F)F)nc2)NC(=O)NC1=O (stereo not drawn) [Example 72, Ent-N-{[4-(1,4-Dimethyl-1H-Pyrazol-3-Yl)-2,5-Dioxoimidazolidin-4-Yl]Methyl}-2-[6-(Trifluoromethyl)Pyridin-3-Yl]Benzamide] | 5.16
Cc1nonc1C1(CNC(=O)c2ccccc2-c2ccc(C(F)(F)F)cc2)NC(=O)NC1=O (stereo not drawn) [Example 73, Ent-N-{[4-(4-Methyl-1,2,5-Oxadiazol-3-Yl)-2,5-Dioxoimidazolidin-4-Yl]Methyl}-4′-(Trifluoromethyl)[Biphenyl]-2-Carboxamide] | 4.70
Cc1nc(C)c(C2(CNC(=O)c3ccccc3-c3ccc(C(F)(F)F)nc3)NC(=O)NC2=O)s1 (stereo not drawn) [Example 74, Ent-N-{[4-(2,4-Dimethyl-1,3-Thiazol-5-Yl)-2,5-Dioxoimidazolidin-4-Yl]Methyl}-2-[6-(Trifluoromethyl)Pyridin-3-Yl]Benzamide] | 5.28
O=C1NC(=O)[C@](CNC(=O)c2ccc(Cl)cc2-c2ccc(C(F)(F)F)nc2)(C2CC2)N1 [Example 75, 4-Chloro-N-{[(4R)-4-Cyclopropyl-2,5-Dioxoimidazolidin-4-Yl]Methyl}-2-[6-(Trifluoromethyl)Pyridin-3-Yl]Benzamide] | 5.00
O=C1NC(=O)[C@](CNC(=O)c2ccc(F)c(F)c2-c2ccc(C(F)(F)F)nc2)(C2CC2)N1 [Example 76, N-{[(4R)-4-Cyclopropyl-2,5-Dioxoimidazolidin-4-Yl]Methyl}-3,4-Difluoro-2-[6-(Trifluoromethyl)Pyridin-3-Yl]Benzamide] | 4.85
Cc1cnoc1C1(CNC(=O)c2ccccc2-c2ccc(C(F)(F)F)nc2)NC(=O)NC1=O (stereo not drawn) [Example 78, Ent-N-{[4-(4-Methyl-1,2-Oxazol-5-Yl)-2,5-Dioxoimidazolidin-4-Yl]Methyl}-2-[6-(Trifluoromethyl)Pyridin-3-Yl]Benzamide] | 4.85
